Test results from PMC4607267 (Molecular and biochemical parasitology, 2015).

Molecular target: T1, SmGAR (Schistosoma mansoni, UniProt A0A3Q0KNW8)
T1 sequence (A0A3Q0KNW8 5-938): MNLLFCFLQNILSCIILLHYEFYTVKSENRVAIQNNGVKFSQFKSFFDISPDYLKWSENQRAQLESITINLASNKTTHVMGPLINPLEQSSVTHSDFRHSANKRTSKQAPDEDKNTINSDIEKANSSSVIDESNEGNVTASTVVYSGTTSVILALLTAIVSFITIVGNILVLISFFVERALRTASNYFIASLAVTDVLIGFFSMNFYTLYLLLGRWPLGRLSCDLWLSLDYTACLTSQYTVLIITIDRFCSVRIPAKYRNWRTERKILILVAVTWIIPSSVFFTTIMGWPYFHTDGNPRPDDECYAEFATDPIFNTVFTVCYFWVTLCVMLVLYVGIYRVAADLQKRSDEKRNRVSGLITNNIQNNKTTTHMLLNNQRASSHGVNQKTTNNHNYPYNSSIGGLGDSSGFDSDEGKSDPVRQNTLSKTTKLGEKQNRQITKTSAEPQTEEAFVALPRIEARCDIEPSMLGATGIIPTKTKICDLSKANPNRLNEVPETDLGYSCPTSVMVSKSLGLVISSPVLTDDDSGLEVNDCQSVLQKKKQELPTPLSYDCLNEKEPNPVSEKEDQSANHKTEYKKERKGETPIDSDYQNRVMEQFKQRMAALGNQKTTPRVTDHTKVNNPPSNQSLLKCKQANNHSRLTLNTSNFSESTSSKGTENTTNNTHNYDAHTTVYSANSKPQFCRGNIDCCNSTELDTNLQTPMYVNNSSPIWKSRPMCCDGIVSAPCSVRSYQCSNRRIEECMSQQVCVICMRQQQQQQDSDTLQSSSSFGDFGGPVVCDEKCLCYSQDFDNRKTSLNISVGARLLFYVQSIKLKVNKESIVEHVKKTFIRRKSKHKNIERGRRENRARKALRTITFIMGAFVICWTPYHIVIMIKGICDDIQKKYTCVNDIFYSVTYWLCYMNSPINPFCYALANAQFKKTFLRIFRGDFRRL
Test: yeast HIS3 reporter growth assay, Alamar Blue
Format: cell-based
Details: read-out: % inhibition at 1 mM

inhibition at 1000 µM: < 50%
Structure (SMILES): CN1CCN(CC(=O)N2c3ccccc3C(=O)Nc3cccnc32)CC1 [pirenzepine]
